Measurements from US20260327233A1, “Heteroaryl Compounds as Ligand Directed Degraders of IRAK4” (Celgene Corporation, priority 2023, published 2026).
Counter-ions that a name gives are not always drawn.

Columns and labels:
IRAK4 [1] = target: T1, IRAK4 (Homo sapiens, UniProt Q9NWZ3); assay: ALE THP1 HTRF (IRAK4 HTRF in THP1 cell lysate, Cisbio HTRF kit); assay type: cell-based; parameters: THP1 Homogeneous Time Resolved Fluorescence (ALE THP1 HTRF) Procedure; endogenous in cells; host or cells: THP1; settings: anti-IRAK4 d2 / anti-IRAK4 k antibodies
T1 sequence (Q9NWZ3 1-460): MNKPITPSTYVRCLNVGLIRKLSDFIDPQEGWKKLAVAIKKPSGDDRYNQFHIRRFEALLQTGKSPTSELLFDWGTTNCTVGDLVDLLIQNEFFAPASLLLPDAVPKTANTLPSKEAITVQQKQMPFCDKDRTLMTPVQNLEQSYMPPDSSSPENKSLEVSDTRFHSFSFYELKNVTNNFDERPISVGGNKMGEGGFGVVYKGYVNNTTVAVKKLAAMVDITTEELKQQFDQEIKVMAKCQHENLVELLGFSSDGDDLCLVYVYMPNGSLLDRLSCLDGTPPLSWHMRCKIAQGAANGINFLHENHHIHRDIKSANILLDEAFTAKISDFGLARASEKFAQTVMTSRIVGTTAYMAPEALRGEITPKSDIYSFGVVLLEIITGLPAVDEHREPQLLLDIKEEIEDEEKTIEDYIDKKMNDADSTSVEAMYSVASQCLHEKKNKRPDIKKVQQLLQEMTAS
Experimental: Cell culture media was prepared in a tissue culture hood in a sterile environment by adding 10% FBS and 1% Penicillin Streptomycin to 500 mL no phenol red RPMI 1640 media. The media was filtered through a Nalgene Bottle Top Filter and stored at 4° C.
For Homogenous Time Resolved Fluorescence (HTRF) assays, a Cisbio HTRF kit was used, which included: Lysis Buffer #1 4×, Blocking Reagent #3 100×, 20× Antibody 1 (Anti-IRAK4 d2), 20× Antibody 2 (Anti-IRAK4 k), and Detection Buffer.
4× Lysis Buffer was stored at 4° C. For use as 1× Lysis buffer, the 4× solution was diluted with de-ionized water (distilled water, Gibco Cat. #15230279) and 100× Blocking Reagent in a 1:3:0.04 volume ratio.
20× Antibody Solution aliquots were stored at −80° C. and the Detection Buffer was stored at 4° C. For use as a 1× Antibody Solution, the 20× Antibody Solution aliquot was diluted with Detection Buffer in a 1:19 volume ratio.
Cells were lysed at room temperature for 45 min with shaking. A BCA protein assay was performed and normalization was conducted to the desired total protein concentration with 1× lysis buffer. Next, 1× Antibody Solutions were prepared by adding 380 μL Detection Buffer to 20 μL 20× Antibody Solution aliquots and mixing well. 1× Antibody Solutions were combined 1:1 and briefly vortexed. For control wells, 20 μL 1× anti IRAK4-k Antibody Solution was saved. The 384-well plate (ProxiPlate-384 Plus, Perkin Elmer Cat. #6008289) was loaded by adding 4 μL of the mixed Antibody Solution to empty wells using a single channel repeater. Using a multi-channel repeater, 16 μL lysate was added per well, and any bubbles that were formed were popped with 20 μL pipette tips and Kimwipe edges. In column 10, triplicates of each control were prepared. In wells A10, B10, and C10, buffer control was prepared by adding 16 μL Lysis Buffer and 4 μL Detection Buffer. In wells D10, E10, and F10, cryptate control was prepared by adding 16 μL Lysis Buffer, 2 μL Detection Buffer, and 2 μL 1× anti-IRAK4-k Antibody Solution. In wells G10, H10, and 110, a negative control was prepared by adding 16 μL Lysis Buffer and 4 μL mixed Antibody Solution. The plate was sealed with a clear seal and covered with an aluminum lid. The plate was spun down at 800 g for 5 min and incubated in the dark at room temperature overnight. The next day, the plate was spun down at 800 g for 5 min. The samples were analyzed by a plate reader (Envision, PerkinElmer) using the Desnor 384 HTRF program.

IRAK4 [2] = target: T1, IRAK4; assay: IRAK4 PhosphoSens Biochemical Assay (BIOCHEM); settings: IRAK4 1 nM; ATP and Sox conjugated peptide substrate AQT0326; pH 7.5; room temperature; 240 minutes
Experimental: The PhosphoSens® biochemical assay was performed as described by the vendor (AssayQuant Technologies Inc. Marlborough, MA). A 1.25× stock solution of IRAK4 (PV4002, ThermoFisher Scientific, Waltham, MA) and a 5× stock solution of ATP and Sox conjugated peptide substrate, AQT0326 (CSKS-AQT0326B, AssayQuant Technologies), were prepared in 1× kinase reaction buffer consisting of 50 mM HEPES, pH 7.5, 0.01% Brij-35, 0.5 mM EGTA, 20 mM MgCl2 and 1 mM DTT. 10 μL of the ATP and substrate solution mix, for a final concentration of 200 µM ATP and […] peptide substrate, was added to a Corning 3574 384-well, white, non-binding surface microtiter plate containing 0.5 μL of serially diluted test compounds prepared in DMSO. The reactions were started with the addition of 40 μL of the enzyme solution, for a final IRAK4 concentration of 1 nM, and monitored every 71 seconds for 240 minutes at λEX 360/λEM 485 in a BioTek Synergy H4 plate reader (Agilent Technologies, Santa Clara, CA) at room temperature. The initial linear portions of the progress curves were fit according to a linear equation to yield the slopes and converted to % inhibition based on a value of 100% activity for the no inhibitor treated control. IC50 values of each compound were obtained by fitting the % inhibition-compound concentration curves using Dotmatics software (Dotmatics, Bishops Stortford, Hertfordshire, England),

Row | EC50 (IRAK4 [1]) [nM] | ALE THP1 HTRF YMIN (IRAK4 [1]) [%] | IC50 (IRAK4 [2]) [nM] | SMILES
1 | 10000 | 73 | 1.6 | O=C1CCC(N2C(=O)c3ccc(N4CCN(C(=O)[C@H]5CC[C@H](n6cc(NC(=O)c7cnn8ccc(N9CCNCC9)nc78)c(C(F)(F)F)n6)CC5)CC4)cc3C2=O)C(=O)N1 (stereo partly drawn) [Compound P-14]
2 | 8 | 18 | < 0.5 | N[C@@H]1C[C@@H](F)CN(c2ccn3ncc(C(=O)Nc4cn([C@H]5CC[C@H](C(=O)N6CCN(c7ccc8c(c7)C(=O)N(C7CCC(=O)NC7=O)C8=O)CC6)CC5)nc4C(F)F)c3n2)C1 (stereo partly drawn) [Compound P-15]
3 | 13 | 41 | 0.5 | O=C1CCC(N2C(=O)c3ccc(N4CCN(C(=O)C5CCC(n6cc(NC(=O)c7cnn8ccc(N9CCNCC9)nc78)c(C(F)F)n6)CC5)CC4)cc3C2=O)C(=O)N1 (stereo not drawn) [Compound P-16]
4 | > 10000 | >95 | 1.2 | N#Cc1nn([C@H]2CC[C@H](CN3CCC(c4ccc5c(c4)C(=O)N(C4CCC(=O)NC4=O)C5=O)CC3)CC2)cc1NC(=O)c1cnn2ccc(N3CCNCC3)nc12 (stereo partly drawn) [Compound P-17]
5 | > 10000 | 69 | < 0.5 | N#Cc1nn(C2CCC(C(=O)N3CCN(c4ccc5c(c4)C(=O)N(C4CCC(=O)NC4=O)C5)CC3)CC2)cc1NC(=O)c1cnn2ccc(N3C[C@H](N)C[C@@H](F)C3)nc12 (stereo partly drawn) [Compound P-18]
6 | 7 | 14 | < 0.5 | N[C@@H]1C[C@@H](F)CN(c2ccn3ncc(C(=O)Nc4cn([C@H]5CC[C@H](C(=O)NC6CCN(c7ccc8c(c7)C(=O)N(C7CCC(=O)NC7=O)C8=O)CC6)CC5)nc4C(F)F)c3n2)C1 (stereo partly drawn) [Compound P-19]
7 | 11 | 22 | < 0.5 | N[C@@H]1C[C@@H](F)CN(c2ccn3ncc(C(=O)Nc4cn([C@H]5CC[C@H](C(=O)NC6CCN(c7ccc8c(c7)C(=O)N(C7CCC(=O)NC7=O)C8=O)CC6)CC5)nc4C(F)(F)F)c3n2)C1 (stereo partly drawn) [Compound P-20]

Further lines, the compound ahead of its results:

Row | SMILES | EC50 (IRAK4 [1]) [nM] | ALE THP1 HTRF YMIN (IRAK4 [1]) [%] | IC50 (IRAK4 [2]) [nM]
8 | N#Cc1nn([C@H]2CC[C@H](C(=O)N3CCN(c4ccc5c(c4)C(=O)N(C4CCC(=O)NC4=O)C5=O)CC3)CC2)cc1NC(=O)c1cnn2ccc(N3CCNCC3)nc12 (stereo partly drawn) [Compound P-1, N-(3-cyano-1-((1r,4r)-4-(4-(2-(2,6-dioxopiperidin-3-yl)-1,3-dioxoisoindolin-5-yl)piperazine-1-carbonyl)cyclohexyl)-1H-pyrazol-4-yl)-5-(piperazin-1-yl)pyrazolo[1,5-a]pyrimidine-3-carboxamide hydrochloride] | 67 | 30 | 8.6
9 | N#Cc1nn(C2CCC(C(=O)N3CCN(c4ccc5c(c4)C(=O)N(C4CCC(=O)NC4=O)C5)CC3)CC2)cc1NC(=O)c1cnn2ccc(N3CCNCC3)nc12 (stereo not drawn) [Compound P-2] | > 10000 | 63 | 15.3
10 | N#Cc1nn(C2CCC(C(=O)NC3CCN(c4ccc5c(c4)C(=O)N(C4CCC(=O)NC4=O)C5=O)CC3)CC2)cc1NC(=O)c1cnn2ccc(N3CCNCC3)nc12 (stereo not drawn) [Compound P-3] | > 10000 | 54 | 4.3
11 | N#Cc1nn([C@H]2CC[C@H](C(=O)N3CCN(c4ccc5c(c4)CN(C4CCC(=O)NC4=O)C5=O)CC3)CC2)cc1NC(=O)c1cnn2ccc(N3CCNCC3)nc12 (stereo partly drawn) [Compound P-4] | > 10000 | 94 | 3.2
12 | N#Cc1nn([C@H]2CC[C@H](C(=O)N3CCN(c4ccc5c(c4)C(=O)N(C4CCC(=O)NC4=O)C5=O)CC3)CC2)cc1NC(=O)c1cnn2ccc(N3CCC[C@@H](N)C3)nc12 (stereo partly drawn) [Compound P-5] | > 10000 | 60 | 0.5
13 | N#Cc1nn([C@H]2CC[C@H](CN3CCN(c4ccc5c(c4)C(=O)N(C4CCC(=O)NC4=O)C5=O)CC3)CC2)cc1NC(=O)c1cnn2ccc(N3CCNCC3)nc12 (stereo partly drawn) [Compound P-6, N-[3-Cyano-1-[4-[[4-[2-(2,6-dioxo-3-piperidyl)-1,3-dioxo-isoindolin-5-yl]piperazin-1-yl]methyl]cyclohexyl]pyrazol-4-yl]-5-piperazin-1-yl-pyrazolo[1,5-a]pyrimidine-3-carboxamide dihydrochloride] | 2820 | 26 | 8.1
14 | N#Cc1nn(C2CCC(C(=O)N3CCN(c4ccc5c(c4)C(=O)N(C4CCC(=O)NC4=O)C5=O)CC3)CC2)cc1NC(=O)c1cnn2ccc(N[C@@H]3CCCC[C@@H]3N)nc12 (stereo partly drawn) [Compound P-7] | > 10000 | 74 | < 0.5
15 | N#Cc1nn(C2CCC(C(=O)N3CCN(c4ccc5c(c4)C(=O)N(C4CCC(=O)NC4=O)C5=O)CC3)CC2)cc1NC(=O)c1cnn2ccc(N3C[C@H](N)C[C@@H](F)C3)nc12 (stereo partly drawn) [Compound P-8] | 8.9 | 33 | < 0.5
16 | N#Cc1nn([C@H]2CC[C@H](CN3CCC(c4ccc5c(c4)C(=O)N(C4CCC(=O)NC4=O)C5)CC3)CC2)cc1NC(=O)c1cnn2ccc(N3CCNCC3)nc12 (stereo partly drawn) [Compound P-9] | > 10000 | 78 | 1.4
17 | N#Cc1nn(C2CCC(C(=O)N3CCC(c4ccc5c(c4)C(=O)N(C4CCC(=O)NC4=O)C5)CC3)CC2)cc1NC(=O)c1cnn2ccc(N3CCNCC3)nc12 (stereo not drawn) [Compound P-10] | > 10000 | 73 | 1.2
18 | N#Cc1nn([C@H]2CC[C@H](C(=O)N3CCN(c4ccc5c(c4)C(=O)N(C4CCC(=O)NC4=O)C5=O)CC3)CC2)cc1NC(=O)c1cnn2ccc(N3CCC[C@@H](O)C3)nc12 (stereo partly drawn) [Compound P-11] | > 10000 | 74 | 0.5
19 | N#Cc1nn(C2CCC(C(=O)N3CCC(c4ccc5c(c4)C(=O)N(C4CCC(=O)NC4=O)C5=O)CC3)CC2)cc1NC(=O)c1cnn2ccc(N3CCNCC3)nc12 (stereo not drawn) [Compound P-12] | 4280 | 66 | 0.5
20 | N[C@@H]1C[C@@H](F)CN(c2ccn3ncc(C(=O)Nc4cn([C@H]5CC[C@H](C(=O)N6CCN(c7ccc8c(c7)C(=O)N(C7CCC(=O)NC7=O)C8=O)CC6)CC5)nc4C(F)(F)F)c3n2)C1 (stereo partly drawn) [Compound P-13, 5-[(3R,5R)-3-Amino-5-fluoro-1-piperidyl]-N-[1-[4-[4-[2-(2,6-dioxo-3-piperidyl)-1,3-dioxo-isoindolin-5-yl]piperazine-1-carbonyl]cyclohexyl]-3-(trifluoromethyl)pyrazol-4-yl]pyrazolo[1,5-a]pyrimidine-3-carboxamide] | 8 | 24 | < 0.5
